Data on three molecules can be found in patent US7528153B2, “Deoxynojirimycin analogues and their uses as glucosylceramidase inhibitors” (Genzyme Corporation, priority 2003, dated 2009).

The nature of series [1]: Bioavailability. Format: in vivo. As to conditions: orally administered.
The nature of series [2]: Cellular toxicity. Format: cell-based. The following applies: at doses envisioned during therapy.
The target in series [3] is Maltase. The series can be described thus: In vitro inhibition of intestinal maltase. Format: biochemical. The following applies: Table 1.
Series [4] in a line: Metabolism. As to conditions: in vivo.
Series [5] deals with MEB4 culture. The series is described as follows: Pigmentation of MEB4 melanoma culture. As to conditions: inhibition of glycosphingolipid synthesis in MEB4 culture. The series is classed as cell-based, murine. The source says: Two melanoma cultures, one dark pigmented (An) and the other very lightly pigmented (M14) show a clearly higher content of glucosylceramide (GlcCer) in the darkly pigmented culture both in the total cell extract and in a melanosomal fraction.

For series [6], the target named is T1, A-Galactosidase (Homo sapiens, UniProt P06280).
T1 construct: measured with appropriate 4-MU substrates using purified enzymes from spleen; from tissue; host or cells: spleen
T1 sequence (P06280 32-429): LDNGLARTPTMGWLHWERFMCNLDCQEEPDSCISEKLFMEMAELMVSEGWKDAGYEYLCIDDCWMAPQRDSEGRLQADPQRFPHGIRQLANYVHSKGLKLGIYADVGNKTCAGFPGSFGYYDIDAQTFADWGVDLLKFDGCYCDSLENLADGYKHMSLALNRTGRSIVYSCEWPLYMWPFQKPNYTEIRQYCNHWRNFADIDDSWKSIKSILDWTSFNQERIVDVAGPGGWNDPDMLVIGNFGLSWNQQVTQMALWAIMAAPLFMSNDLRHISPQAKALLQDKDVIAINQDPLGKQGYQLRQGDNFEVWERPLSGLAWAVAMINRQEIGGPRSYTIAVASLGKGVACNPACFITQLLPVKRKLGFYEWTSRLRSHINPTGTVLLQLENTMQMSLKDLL
The series is described as follows: In vitro inhibition of lysosomal A-galactosidase (4-MU substrate, purified enzyme from spleen). The following applies: Table 3, read-out: Apparent in vitro IC50 value, A-Galactosidase. Format: biochemical.

Series [7] addresses T2, b-Galactosidase (Homo sapiens, UniProt P16278).
T2 construct: measured with appropriate 4-MU substrates using purified enzymes from spleen; from tissue; host or cells: spleen
T2 sequence (P16278 29-677): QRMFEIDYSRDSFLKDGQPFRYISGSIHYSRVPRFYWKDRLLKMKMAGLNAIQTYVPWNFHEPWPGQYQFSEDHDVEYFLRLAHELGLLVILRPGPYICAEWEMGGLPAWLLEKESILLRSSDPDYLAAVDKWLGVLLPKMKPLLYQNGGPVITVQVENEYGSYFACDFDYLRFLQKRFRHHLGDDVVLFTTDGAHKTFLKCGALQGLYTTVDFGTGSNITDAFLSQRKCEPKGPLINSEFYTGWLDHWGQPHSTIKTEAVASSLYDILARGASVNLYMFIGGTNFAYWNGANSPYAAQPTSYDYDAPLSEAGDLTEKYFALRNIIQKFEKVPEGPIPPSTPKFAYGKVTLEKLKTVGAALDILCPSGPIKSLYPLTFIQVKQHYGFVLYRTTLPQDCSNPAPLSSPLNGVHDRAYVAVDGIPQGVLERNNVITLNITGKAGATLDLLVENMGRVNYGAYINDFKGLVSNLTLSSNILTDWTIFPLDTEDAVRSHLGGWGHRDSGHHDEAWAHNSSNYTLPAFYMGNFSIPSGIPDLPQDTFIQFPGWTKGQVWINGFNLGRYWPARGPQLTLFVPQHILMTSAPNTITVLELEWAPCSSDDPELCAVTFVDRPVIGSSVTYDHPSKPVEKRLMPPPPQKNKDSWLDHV
The series can be described thus: In vitro inhibition of lysosomal b-galactosidase (4-MU substrate, purified enzyme from spleen). The series is classed as biochemical. The following applies: Table 3, read-out: Apparent in vitro IC50 value, A b-Galactosidase.

Series [8] has as its system human melanocytes. The series can be described thus: Pigmentation / melanin production in melanocytes. The series is classed as cell-based. The following applies: melanocytes of lighter and darker skin type, within a single culture passage. The source says:
Iminosugars were designed that harbour optimal features for use in skin. Ceramide and glucosylceramide are important structural components of the stratum corneum and regulate water permeability of the skin. It is known that glucosylceramides together with other polar lipids are secreted into the extracellular space of the stratum corneum by lamellar bodies and are subsequently processed to ceramides. […] Iminosugars should therefore not interfere with the crucial generation of ceramide from glucosylceramide catalysed by lysosomal glucocerebrosidase.
The pharmaceutical application of the deoxynojirimycin analogues according to the invention and will be in post-inflammatory hyperpigmentation and skin inflammatory conditions. There is strong evidence that when administered systemically these deoxynojirimycin analogues have strong anti-inflammatory activity in vivo.

In series [9] the target is Hexosaminidase. The series is described as follows: In vitro inhibition of lysosomal hexosaminidase (4-MU substrate, purified enzyme from spleen). Format: biochemical. As to conditions: Table 3, read-out: Apparent in vitro IC50 value, Hexosaminidase.
Series [10] has as its target T3, lysosomal alfa-glucosidase (Homo sapiens, UniProt P10253).
T3 construct: measured with appropriate 4-MU substrates using purified enzymes from spleen; from tissue; host or cells: spleen
The series is described as follows: In vitro inhibition of lysosomal alfa-glucosidase (4-MU substrate, purified enzyme from spleen). Format: biochemical. As to conditions: Table 3, read-out: Apparent in vitro IC50 value, a-Glucosidase.

For series [11], the system named is glycosphingolipid synthesis. The following applies: 100 mg TID, Gaucher patients; cited from earlier work.

Consider `OC[C@@H]1[C@@H](O)[C@H](O)[C@@H](O)CN1CCCCCOCC12CC3CC(CC(C3)C1)C2` [N-(5-adamantane-1-yl-methoxy-pentyl)deoxynojirimycin, reference compound], for which the Bioavailability entry in series [1] was “highly bioavailable”. For the same molecule, in series [2], the Cellular toxicity entry was “no intrinsic cellular toxicity”. This molecule came in with a half-maximal inhibitory concentration (IC50) in series [3] above 25 µM. The Metabolism entry in series [4] was “metabolically inert”.

Turning to `OC[C@@H]1[C@H](O)[C@H](O)[C@H](O)CN1CCCCCOCC12CC3CC(CC(C3)C1)C2` [N-(adamantane-1-yl-methoxypentyl)-L-ido-deoxynojirimycin], the “Pigmentation of MEB4 culture” value in series [5] is “loss of pigmentation”. Also, the half-maximal inhibitory concentration (IC50) in series [6], in series [7], in [3] and in [9] was above 100 µM each time. The Bioavailability entry in [1] is recorded as “well bioavailable”. Moreover, the Cellular toxicity entry in series [2] is listed as “no cellular toxicity”. The “Pigmentation / melanin production in melanocytes” value in [8] is given as “reduce melanin production”; in [8] (listed as ido-N-(5-adamantane-1-yl-methoxy-pentyl)deoxynojirimycin), “significant decrease in pigmentation”.

In the case of `CCCCN1C[C@H](O)[C@@H](O)[C@H](O)[C@H]1CO` [N-butyl-deoxynojirimycin, reference compound], the IC50 in series [10] is 800 nM; in series [7], above 100 µM; in [9], above 100 µM. Moreover, the “Inhibition of glycosphingolipid synthesis” value in [11] is given as 20-30%.

Broadly, the IC50 is the midpoint of a concentration-inhibition curve.
